Data from PMC11127902, “Rescuing tri-heteromeric NMDA receptor function: the potential of pregnenolone-sulfate in loss-of-function GRIN2B variants” (Cellular and Molecular Life Sciences: CMLS, 2024).
Where two headings read alike, the source gives them in different places.

Legend:
[1] = system: Mixed tri-heteromeric GluN2A-P552R/ GluN2B-wt; parameters: method as in PMID 35110392; conditions: glutamate; ref 10; cited from earlier work
[2] = system: Pure variant di-heteromeric GluN2B-G543R; parameters: method as in PMID 35110392; conditions: glutamate; ref 10; cited from earlier work
[3] = system: Pure variant di-heteromeric GluN2A-L649V; parameters: method as in PMID 35110392; conditions: glutamate; ref 10; cited from earlier work
[4] = system: Pure variant di-heteromeric GluN2A-M817V; parameters: method as in PMID 28126851; conditions: glutamate; ref 91; cited from earlier work
[5] = target: T1, Tri-heteromeric GluN2A-wt/GluN2B-G689S (Rattus norvegicus, UniProt P35439+Q00959+Q00960, A876H/F846L/G689S/G856D/H848F/K857R/M851T/M860L/Q845K/V861L); format: cell-based; conditions: glutamate dose-response
T1 construct: expressed in transfected cells; host or cells: Xenopus laevis oocytes, mRNA injection
Description: (§1) Aliquots were thawed before each experiment.

[6] = target: T2, Tri-heteromeric GluN2A-wt/GluN2B-G689C (Rattus norvegicus, UniProt P35439+Q00959+Q00960, A876H/F846L/G689C/G856D/H848F/K857R/M851T/M860L/Q845K/V861L); format: cell-based; conditions: glutamate dose-response
T2 construct: expressed in transfected cells; host or cells: Xenopus laevis oocytes, mRNA injection
T2 sequence (Q00960+Q00959 fused with the stated changes, other chains not shown): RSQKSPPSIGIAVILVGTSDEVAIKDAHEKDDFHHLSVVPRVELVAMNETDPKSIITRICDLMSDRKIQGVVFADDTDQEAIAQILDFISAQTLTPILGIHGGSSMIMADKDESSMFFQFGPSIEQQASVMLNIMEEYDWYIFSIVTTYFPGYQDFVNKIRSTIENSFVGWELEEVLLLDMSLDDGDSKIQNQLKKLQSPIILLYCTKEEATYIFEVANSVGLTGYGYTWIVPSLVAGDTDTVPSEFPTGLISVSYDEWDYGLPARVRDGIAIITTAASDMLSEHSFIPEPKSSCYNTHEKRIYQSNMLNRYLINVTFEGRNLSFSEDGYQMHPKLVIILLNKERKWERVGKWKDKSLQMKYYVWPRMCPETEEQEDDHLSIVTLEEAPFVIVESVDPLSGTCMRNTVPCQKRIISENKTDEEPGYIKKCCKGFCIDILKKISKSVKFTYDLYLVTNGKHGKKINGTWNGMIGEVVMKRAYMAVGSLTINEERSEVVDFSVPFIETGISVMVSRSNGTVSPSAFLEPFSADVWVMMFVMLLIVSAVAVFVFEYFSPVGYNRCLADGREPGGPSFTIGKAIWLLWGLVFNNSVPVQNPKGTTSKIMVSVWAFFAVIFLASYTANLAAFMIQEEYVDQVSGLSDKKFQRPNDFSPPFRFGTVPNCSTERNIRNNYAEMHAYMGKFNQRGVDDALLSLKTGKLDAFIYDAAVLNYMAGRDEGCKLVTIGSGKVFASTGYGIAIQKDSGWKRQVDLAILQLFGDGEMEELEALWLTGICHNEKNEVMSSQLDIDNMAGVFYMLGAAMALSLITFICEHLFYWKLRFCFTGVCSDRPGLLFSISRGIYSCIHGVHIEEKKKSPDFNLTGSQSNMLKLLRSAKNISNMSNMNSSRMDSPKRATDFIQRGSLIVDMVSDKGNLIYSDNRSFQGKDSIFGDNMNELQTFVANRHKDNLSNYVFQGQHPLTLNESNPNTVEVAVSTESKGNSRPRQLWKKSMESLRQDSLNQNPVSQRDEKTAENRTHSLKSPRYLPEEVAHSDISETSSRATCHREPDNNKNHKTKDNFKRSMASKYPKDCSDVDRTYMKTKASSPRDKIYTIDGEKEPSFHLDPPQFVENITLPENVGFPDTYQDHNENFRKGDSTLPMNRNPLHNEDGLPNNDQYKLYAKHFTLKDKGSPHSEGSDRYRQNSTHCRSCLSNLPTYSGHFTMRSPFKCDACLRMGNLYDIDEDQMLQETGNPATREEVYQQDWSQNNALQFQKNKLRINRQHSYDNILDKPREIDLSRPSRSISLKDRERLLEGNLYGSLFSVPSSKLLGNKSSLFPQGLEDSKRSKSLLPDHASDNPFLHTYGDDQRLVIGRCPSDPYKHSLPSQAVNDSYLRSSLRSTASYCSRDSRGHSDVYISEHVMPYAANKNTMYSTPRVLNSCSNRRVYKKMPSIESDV
T2 sequence (Q00959 23-1464, other chains not shown): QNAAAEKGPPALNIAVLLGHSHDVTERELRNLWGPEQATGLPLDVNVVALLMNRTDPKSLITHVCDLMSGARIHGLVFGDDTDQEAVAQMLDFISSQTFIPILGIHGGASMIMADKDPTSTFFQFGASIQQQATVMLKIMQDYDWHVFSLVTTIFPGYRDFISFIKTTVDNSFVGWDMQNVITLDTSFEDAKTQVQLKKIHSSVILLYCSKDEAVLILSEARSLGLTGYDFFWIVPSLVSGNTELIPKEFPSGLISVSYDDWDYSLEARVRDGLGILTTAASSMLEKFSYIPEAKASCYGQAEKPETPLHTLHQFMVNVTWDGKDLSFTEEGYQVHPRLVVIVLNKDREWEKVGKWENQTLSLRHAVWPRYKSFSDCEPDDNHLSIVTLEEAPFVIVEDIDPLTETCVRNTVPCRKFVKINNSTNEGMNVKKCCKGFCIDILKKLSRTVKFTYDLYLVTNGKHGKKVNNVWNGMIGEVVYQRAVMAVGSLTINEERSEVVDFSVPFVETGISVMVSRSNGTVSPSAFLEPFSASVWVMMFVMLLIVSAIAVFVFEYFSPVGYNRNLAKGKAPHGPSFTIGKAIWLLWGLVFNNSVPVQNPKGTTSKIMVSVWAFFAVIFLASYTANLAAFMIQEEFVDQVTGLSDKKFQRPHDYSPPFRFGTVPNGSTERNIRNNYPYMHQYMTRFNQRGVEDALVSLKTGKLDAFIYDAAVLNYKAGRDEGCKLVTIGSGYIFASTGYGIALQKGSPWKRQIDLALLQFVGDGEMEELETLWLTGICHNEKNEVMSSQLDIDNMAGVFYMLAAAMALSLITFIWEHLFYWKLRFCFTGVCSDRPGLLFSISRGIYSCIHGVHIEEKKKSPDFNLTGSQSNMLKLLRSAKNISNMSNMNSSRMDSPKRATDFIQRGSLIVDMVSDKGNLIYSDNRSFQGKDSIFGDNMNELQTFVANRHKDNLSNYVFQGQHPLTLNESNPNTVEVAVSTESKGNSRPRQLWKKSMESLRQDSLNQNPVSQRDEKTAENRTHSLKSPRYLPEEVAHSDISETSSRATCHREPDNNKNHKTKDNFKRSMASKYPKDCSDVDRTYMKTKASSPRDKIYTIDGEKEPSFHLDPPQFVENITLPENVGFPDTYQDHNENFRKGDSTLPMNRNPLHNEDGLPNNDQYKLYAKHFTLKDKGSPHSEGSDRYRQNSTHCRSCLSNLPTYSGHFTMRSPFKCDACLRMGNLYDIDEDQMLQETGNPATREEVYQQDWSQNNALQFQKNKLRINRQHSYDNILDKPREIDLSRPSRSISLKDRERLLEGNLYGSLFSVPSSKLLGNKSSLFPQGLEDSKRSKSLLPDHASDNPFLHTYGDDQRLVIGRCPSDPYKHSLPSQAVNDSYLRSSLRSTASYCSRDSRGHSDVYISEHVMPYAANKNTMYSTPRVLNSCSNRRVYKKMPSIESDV
Description: as §1

[7] = system: Tri-heteromeric GluN2A-wt/GluN2B-G689S; format: cell-based, rat; conditions: compared to GluN2A-wt + GluN2B-wt tri-heteromeric channels
Description: as §1

[8] = system: Tri-heteromeric GluN2A-wt/GluN2B-G689C; format: cell-based, rat; conditions: compared to GluN2A-wt + GluN2B-wt tri-heteromeric channels
Description: as §1

[9] = system: Mixed di-heteromeric GluN2B-wt/GluN2B-C461F; parameters: method as in PMID 27839871; conditions: glutamate; ref 21; cited from earlier work
[10] = system: Mixed di-heteromeric GluN2A-wt/GluN2A-L812M; parameters: method as in PMID 24504326; conditions: glutamate; ref 39; cited from earlier work
[11] = system: Pure variant di-heteromeric GluN2A-E551K; parameters: method as in PMID 35110392; conditions: glutamate; ref 10; cited from earlier work
[12] = system: Mixed tri-heteromeric GluN2A-L812M/ GluN2B-wt; parameters: method as in PMID 35110392; conditions: glutamate; ref 10; cited from earlier work
[13] = system: wt tri-heteromeric GluN2A-wt/GluN2B-wt NMDAR; conditions: glutamate, cited from earlier work
[14] = system: Mixed tri-heteromeric GluN2A-M817V/ GluN2B-wt; parameters: method as in PMID 35110392; conditions: glutamate; ref 10; cited from earlier work
[15] = system: Mixed tri-heteromeric GluN2A-wt/ GluN2B-M818T; parameters: method as in PMID 35110392; conditions: glutamate; ref 10; cited from earlier work
[16] = system: Mixed di-heteromeric GluN2A-wt/GluN2A-M817V; parameters: method as in PMID 28126851; conditions: glutamate; ref 91; cited from earlier work
[17] = system: Mixed di-heteromeric GluN2A-wt/GluN2A-S644G; parameters: method as in PMID 32577763; conditions: glutamate; ref 19; cited from earlier work
[18] = system: non-tagged purely di-heteromeric GluN2B-wt; parameters: method as in PMID 32168371; conditions: read-out: Glutamate EC50 (adapted from[16]); non-tagged human receptors; cited from earlier work
[19] = system: Mixed tri-heteromeric GluN2A-wt/ GluN2B-H486A; parameters: method as in PMID 24607230; conditions: glutamate; ref 8; cited from earlier work
[20] = system: Mixed di-heteromeric GluN2B-wt/GluN2B-H486A; parameters: method as in PMID 24607230; conditions: glutamate; ref 8; cited from earlier work
[21] = system: Pure variant di-heteromeric GluN2A-H485A; parameters: method as in PMID 24607230; conditions: glutamate; ref 8; cited from earlier work
[22] = system: Pure variant di-heteromeric GluN2A-T690A; parameters: method as in PMID 24607230; conditions: glutamate; ref 8; cited from earlier work
[23] = system: Pure variant di-heteromeric GluN2A-D731N; parameters: method as in PMID 28182669; conditions: glutamate; ref 33; cited from earlier work
[24] = system: Mixed di-heteromeric GluN2A-wt/GluN2A-D731N; parameters: method as in PMID 28182669; conditions: glutamate; ref 33; cited from earlier work
[25] = target: Mixed di-heteromeric GluN2B-wt/GluN2B-G689C (Rattus norvegicus, UniProt P35439+Q00960, G689C); assay: TEVC in Xenopus oocytes; conditions: glutamate dose-response
Description: (§2) Two electrode voltage clamp (TEVC) recordings were carried out 24–72 h after mRNA injections, as previously described [17, 37]. We use a commercial amplifier (Warner Instruments, USA) and Digitizer (Digidata-1550B; Molecular Devices, USA), controlled by the pClamp10 software (Molecular Devices, USA). Electrode were made by pulling glass capillaries (Narishige, Japan) filled with 3 M KCl, into which we inserted chlorinated silver wires. […] For hERG channel recordings, oocytes were clamped at (− 60) mV for 1 s, followed by a voltage jump to 20 mV for 4 s, and an additional voltage jump to (− 50) mV for 6 s and return to baseline voltage (see Supplementary. 6f), as previously described [53].
(§3) When assessing potentiation by PS, all other solutions also included equal amounts of the DMSO carrier (0.2%).
(§4) Electrophysiology data were analyzed by Clampfit 11.2 (Molecular Devices, USA), plotted using GraphPad 8 or SigmaPlot 11(Systat software, Inc.). […] In all TEVC recordings in oocytes, the responses were normalized to current amplitude obtained from that individual cell. […] All data are shown as mean ± SEM. In all experiments N indicates the number of independent experiments, whereas n indicates the number of cells recorded. In each experiment, data underwent normality test prior to statistical assessment. Normally distributed data were assessed for significance by using paired t-test or one-way ANOVA for multiple group comparison and post hoc Tukey test or Dunnett's test. Similarly, in the case of non-normally distributed data significance was assessed by Mann Whitney test or Kruskal–Wallis ANOVA on ranks test followed by Dunn’s multiple comparison post hoc; n.s., non-significant; *p < 0.05; **p < 0.01; ***p < 0.001. […] Leak expression was evaluated by normalizing the maximal current (Imax) of each ER-retained NMDAR composition to Imax of control group (which was recorded in all experiments). Estimation of activation time constant (τ) for potentiated currents by PS, was performed by fitting PS- potentiated currents with a standard single-exponential function, from which we extracted the time constant (τ).

[26] = system: Mixed di-heteromeric GluN2B-wt/GluN2B-G689C; assay: TEVC in Xenopus oocytes; conditions: compared to purely di-heteromeric variant channels
Description: as §2, §3, §4

[27] = system: Pure variant di-heteromeric GluN2B-E413G; parameters: method as in PMID 27839871; conditions: glutamate; ref 21; cited from earlier work
[28] = system: wt di-heteromeric GluN2A NMDAR; conditions: glutamate, cited from earlier work
[29] = system: Mixed tri-heteromeric GluN2A-wt/ GluN2B-A639V; parameters: method as in PMID 35110392; conditions: glutamate; ref 10; cited from earlier work
[30] = system: Mixed tri-heteromeric GluN2A-H485A/ GluN2B-wt; parameters: method as in PMID 24607230; conditions: glutamate; ref 8; cited from earlier work

Structure (SMILES): N[C@@H](CCC(=O)O)C(=O)O [Glutamate, glutamate]
- EC50 [1]: 560 nM
- EC50 [2]: 220 nM
- EC50 [3]: 50 nM
- EC50 [4]: 470 nM
- Hill coefficient (nH) [5]: 1.06 ± 0.13 n.s (N = 1, n = 11)
- Hill coefficient (nH) [6]: 0.85 ± 0.14 n.s (N = 1, n = 10)
- increase in EC50 [7]: ~ 600 fold
- increase in EC50 [8]: ~ 300 fold
- EC50 [9]: 61 µM
- EC50 [10]: 1000 nM
- EC50 [11]: 470 nM
- EC50 [12]: 840 nM
- EC50 ([13]; ref 8): 2600 nM
- EC50 ([13]; ref 10): 2200 nM
- EC50 [14]: 750 nM
- EC50 [15]: 960 nM
- EC50 [16]: 1100 nM
- EC50 [17]: 700 nM
- EC50 [18]: 1400 ± 100 nM
- EC50 [19]: 140 µM
- EC50 [20]: 75 µM
- EC50 [21]: 1.06 mM
- EC50 [22]: 2.7 mM
- EC50 [23]: 30 mM
- EC50 [24]: 6.45 mM
- Hill coefficient (nH) [25]: 0.75 ± 0.08 n.s (N = 6, n = 54)
- higher (improved) glutamate potency [26]: ~ four-fold
- EC50 [27]: 82 µM
- EC50 ([28]; ref 8): 4.2 µM
- EC50 ([28]; ref 19): 4.5 µM
- EC50 ([28]; ref 32): 3.9 µM
- EC50 ([28]; ref 33): 5.7 µM
- EC50 ([28]; ref 39): 4 µM
- EC50 ([28]; ref 91): 3.6 µM
- EC50 [29]: 580 nM
- EC50 [30]: 210 µM
